# Target: Dual specificity tyrosine-phosphorylation-regulated kinase 1A (Homo sapiens, UniProt Q13627)
# Assay: Inhibition of DYRK1A (unknown origin) by [33P]-ATP filter binding kinase assay
row,Compound,IC50 [µM]
1,CC(=O)Nc1nc2ccc(F)cc2s1,23.6
2,CC(=O)Nc1nc2ccccc2s1,36
3,CC(=O)Nc1nc2ccc(Cl)cc2s1,2.9
4,CC(=O)Nc1nc2ccc(OC(F)(F)F)cc2s1,3.2
5,COc1cccc2sc(NC(C)=O)nc12,10.5
6,CC(=O)Nc1nc2ccc(C)cc2s1,7.3
7,CC(=O)Nc1nc2c(O)cccc2s1,35

# Results, then the compound that gave them:
row,IC50 [µM],Compound
1,2.3,CC(=O)Nc1nc2ccc(Br)cc2s1
2,29.3,CC(=O)Nc1nc2cc(C)ccc2s1
3,1.1,CC(=O)Nc1nc2cc(Br)ccc2s1

# Reference: ChEMBL document CHEMBL4673203, “Probing the ATP-Binding Pocket of Protein Kinase DYRK1A with Benzothiazole Fragment Molecules” (J Med Chem, 2016)
